Experimental data from the supplement of paper PMC11061612.

How the values were obtained:
Assay in all cases: combination Emax (second highest fraction inhibited in the dose matrix, 72 h); higher = more inhibition; extreme values may be limits of the assay
[1] = test system: NCI-H2595 (Mesothelioma)
Summary of the method: (§1)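 Cell lines in DMEM/F12 or RPMI with 10% FBS were plated in 1536-well plates, held 24 hours at 37°C, 5% CO2, then given two-drug dose matrices for 72 hours (DMSO typically 0.2%). Viability was read by CellTiter-Glo 2.0 luminescence and scaled as inhibition from 0 (vehicle wells) to 1 (blank wells). Combination Emax is the second-highest inhibition in the matrix; Bliss excess is observed combination effect minus expected EA + EB − EA·EB, EA and EB being single-agent effects.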

[2] = test system: KATOIII (Gastric Carcinoma)
Summary of the method: as §1

[3] = test system: SW1783 (Low Grade Glioma)
Summary of the method: as §1

[4] = test system: EM-2 (Chronic Myelogenous Leukemia)
Summary of the method: as §1

[5] = test system: NCI-H1299 (Non-Small Cell Lung Carcinoma)
Summary of the method: as §1

[6] = test system: JiyoyeP-2003 (Burkitt's Lymphoma)
Summary of the method: as §1

[7] = test system: NCI-H1694 (Small Cell Lung Carcinoma)
Summary of the method: as §1

[8] = test system: COR-L23 (Non-Small Cell Lung Carcinoma)
Summary of the method: as §1

[9] = test system: TE-5 (Esophageal Squamous Cell Carcinoma)
Summary of the method: as §1

[10] = test system: MFH-ino (Other Solid Carcinomas)
Summary of the method: as §1

[11] = test system: SNU-C5 (Colorectal Carcinoma)
Summary of the method: as §1

[12] = test system: U-266 (Plasma Cell Myeloma)
Summary of the method: as §1

[13] = test system: SK-N-FI (Neuroblastoma)
Summary of the method: as §1

[14] = test system: CAL-78 (Chondrosarcoma)
Summary of the method: as §1

[15] = test system: MDA-MB-157 (Breast Carcinoma)
Summary of the method: as §1

[16] = test system: SW1990 (Pancreatic Carcinoma)
Summary of the method: as §1

[17] = test system: CTV-1 (T-Lymphoblastic Leukemia)
Summary of the method: as §1

[18] = test system: J82 (Bladder Carcinoma)
Summary of the method: as §1

[19] = test system: HPAC (Pancreatic Carcinoma)
Summary of the method: as §1

[20] = test system: OCI-AML2 (Acute Myeloid Leukemia)
Summary of the method: as §1

Structure (SMILES) | combination Emax [1] | combination Emax [2] | combination Emax [3] | combination Emax [4] | combination Emax [5] | combination Emax [6] | combination Emax [7] | combination Emax [8] | combination Emax [9] | combination Emax [10] | combination Emax [11] | combination Emax [12] | combination Emax [13] | combination Emax [14] | combination Emax [15] | combination Emax [16] | combination Emax [17] | combination Emax [18] | combination Emax [19] | combination Emax [20]
CN(C)CCCOc1ccc(-c2ccc3ncc4c(c3c2)n(C2CCOCC2)c(=O)n4C)cn1 [AZD0156] + CCN(CCO)CCCOc1ccc2c(Nc3cc(CC(=O)Nc4cccc(F)c4)[nH]n3)ncnc2c1 [AZD2811] (first compound max 1 µM, 7x7, partner max 1 µM) | 0.108 | 0.0129 | 0.0598 | 0.852 | 0.251 | 0.408 | 0.278 | 0.116 | 0.1 | 0.136 | 0.224 | 0.299 | 0.114 | 0.193 | 0.153 | 0.0964 | 0.234 | 0.283 | 0.206 | 0.773
CC(=O)c1c(C)c2cnc(Nc3ccc(N4CCNCC4)cn3)nc2n(C2CCCC2)c1=O [Palbociclib] + Cn1cnc2c(F)c(Nc3ccc(Br)cc3Cl)c(C(=O)NOCCO)cc21 [Selumetinib] (first compound max 10 µM, 7x7, partner max 10 µM) | 0.155 | 0.465 | 0.0922 | 0.459 | 0.463 | 0.587 | 0.306 | 0.327 | 0.213 | 0.429 | 0.463 | 0.648 | 0.531 | 0.331 | 0.147 | 0.334 | 0.905 | 0.138 | 0.735 | 1
COc1nnc2ccc(N3CCC(c4ccc(OCCN5CCN(C)C(=O)[C@H]5C)cc4)CC3)nn12 [AZD5153] + Cn1cnc2c(F)c(Nc3ccc(Br)cc3Cl)c(C(=O)NOCCO)cc21 [Selumetinib] (first compound max 1 µM, 7x7, partner max 10 µM) | 0.364 | 0.424 | 0.246 | 0.992 | 0.729 | 0.839 | 0.234 | 0.422 | 0.429 | 0.636 | 0.619 | 0.542 | 0.844 | 0.391 | 0.546 | 0.265 | 0.99 | 0.496 | 0.82 | 1
Cc1cc2ncnn2cc1Nc1ncc2c(n1)n(C1CCOCC1)c(=O)n2C [AZD7648] + O=C(c1cc(Cc2n[nH]c(=O)c3ccccc23)ccc1F)N1CCN(C(=O)C2CC2)CC1 [Olaparib] (first compound max 10 µM, 7x7, partner max 10 µM) | 0.116 | 0.145 | 0.14 | 0.351 | 0.249 | 0.423 | 0.152 | 0.212 | 0.162 | 0.262 | 0.24 | 0.335 | 0.213 | 0.252 | 0.0869 | 0.11 | 0.279 | 0.351 | 0.0971 | 0.723
NC1(C(=O)N[C@@H](CCO)c2ccc(Cl)cc2)CCN(c2ncnc3[nH]ccc23)CC1 [Capivasertib] + CCN(CCO)CCCOc1ccc2c(Nc3cc(CC(=O)Nc4cccc(F)c4)[nH]n3)ncnc2c1 [AZD2811] (first compound max 10 µM, 7x7, partner max 1 µM) | 0.261 | 0.295 | 0.469 | 0.877 | 0.364 | 0.777 | 0.508 | 0.474 | 0.339 | 0.318 | 0.501 | 0.312 | 0.396 | 0.512 | 0.276 | 0.136 | 0.636 | 0.482 | 0.395 | 0.904
NC1(C(=O)N[C@@H](CCO)c2ccc(Cl)cc2)CCN(c2ncnc3[nH]ccc23)CC1 [Capivasertib] + C[C@@H]1COCCN1C2=NC(=NC(=C2)C3(CC3)[S@](=N)(=O)C)C4=C5C=CNC5=NC=C4 [AZD6738] (first compound max 10 µM, 7x7, partner max 10 µM) | 0.29 | 0.438 | 0.679 | 0.973 | 0.602 | 0.93 | 0.682 | 0.707 | 0.721 | 0.602 | 0.811 | 0.365 | 0.705 | 0.663 | 0.884 | 0.498 | 0.902 | 0.65 | 0.545 | 0.983
NC1(C(=O)N[C@@H](CCO)c2ccc(Cl)cc2)CCN(c2ncnc3[nH]ccc23)CC1 [Capivasertib] + COc1nnc2ccc(N3CCC(c4ccc(OCCN5CCN(C)C(=O)[C@H]5C)cc4)CC3)nn12 [AZD5153] (first compound max 10 µM, 7x7, partner max 1 µM) | 0.301 | 0.201 | 0.473 | 0.958 | 0.669 | 0.912 | 0.523 | 0.552 | 0.609 | 0.513 | 0.665 | 0.38 | 0.579 | 0.489 | 0.389 | 0.208 | 1 | 0.632 | 0.68 | 1
CC(=O)c1c(C)c2cnc(Nc3ccc(N4CCNCC4)cn3)nc2n(C2CCCC2)c1=O [Palbociclib] + CC1(C)CCC(CN2CCN(c3ccc(C(=O)NS(=O)(=O)c4ccc(NCC5CCOCC5)c([N+](=O)[O-])c4)c(Oc4cnc5[nH]ccc5c4)c3)CC2)=C(c2ccc(Cl)cc2)C1 [Venetoclax] (first compound max 10 µM, 7x7, partner max 1 µM) | 0.104 | 0.358 | 0.0456 | 0.287 | 0.326 | 0.614 | 0.404 | 0.106 | 0.0622 | 0.219 | 0.468 | 0.35 | 0.213 | 0.278 | 0.115 | 0.143 | 0.921 | 0.237 | 0.204 | 1
CC1(C)CCC(CN2CCN(c3ccc(C(=O)NS(=O)(=O)c4ccc(NCC5CCOCC5)c([N+](=O)[O-])c4)c(Oc4cnc5[nH]ccc5c4)c3)CC2)=C(c2ccc(Cl)cc2)C1 [Venetoclax] + C=CCn1c(=O)c2cnc(Nc3ccc(N4CCN(C)CC4)cc3)nc2n1-c1cccc(C(C)(C)O)n1 [AZD1775] (first compound max 1 µM, partner max 1 µM) | 0.189 | 0.382 | 0.307 | 0.949 | 0.641 | 0.954 | 0.516 | 0.602 | 0.451 | 0.184 | 0.57 | 0.85 | 0.713 | 0.51 | 0.905 | 0.783 | 0.992 | 0.177 | 0.757 | 1
COc1nnc2ccc(N3CCC(c4ccc(OCCN5CCN(C)C(=O)[C@H]5C)cc4)CC3)nn12 [AZD5153] + CCN(CCO)CCCOc1ccc2c(Nc3cc(CC(=O)Nc4cccc(F)c4)[nH]n3)ncnc2c1 [AZD2811] (first compound max 1 µM, 7x7, partner max 1 µM) | 0.465 | 0.31 | 0.328 | 0.986 | 0.71 | 0.846 | 0.364 | 0.354 | 0.434 | 0.553 | 0.517 | 0.279 | 0.657 | 0.486 | 0.54 | 0.118 | 0.974 | 0.355 | 0.649 | 1
Cc1c2c(nn1C)CSCc1cc(n(C)n1)CSc1cc(c3ccccc3c1)OCCCc1c(C(=O)O)n(C)c3c-2c(Cl)ccc13 [AZD5991] + C[C@@H](Nc1cc(F)cc(F)c1)c1cc(C(=O)N(C)C)cc2c(=O)cc(N3CCOCC3)oc12 [AZD8186] (first compound max 1 µM, 7x7, partner max 3 µM) | 0.336 | 0.175 | 0.4 | 0.259 | 0.386 | 0.718 | 0.953 | 0.104 | 0.191 | 0.234 | 0.254 | 0.894 | 0.565 | 0.875 | 0.876 | 0.21 | 0.143 | 0.234 | 0.378 | 0.946
CC1(C)CCC(CN2CCN(c3ccc(C(=O)NS(=O)(=O)c4ccc(NCC5CCOCC5)c([N+](=O)[O-])c4)c(Oc4cnc5[nH]ccc5c4)c3)CC2)=C(c2ccc(Cl)cc2)C1 [Venetoclax] + CCN(CCO)CCCOc1ccc2c(Nc3cc(CC(=O)Nc4cccc(F)c4)[nH]n3)ncnc2c1 [AZD2811] (first compound max 1 µM, 7x7, partner max 1 µM) | 0.611 | 0.17 | 0.333 | 0.864 | 0.19 | 0.382 | 0.485 | 0.172 | 0.29 | 0.191 | 0.19 | 0.614 | 0.198 | 0.328 | 0.56 | 0.625 | 0.184 | 0.177 | 0.361 | 1
Cc1cc2ncnn2cc1Nc1ncc2c(n1)n(C1CCOCC1)c(=O)n2C [AZD7648] + C=CCn1c(=O)c2cnc(Nc3ccc(N4CCN(C)CC4)cc3)nc2n1-c1cccc(C(C)(C)O)n1 [AZD1775] (first compound max 10 µM, partner max 1 µM) | 0.244 | 0.391 | 0.322 | 0.964 | 0.72 | 0.929 | 0.383 | 0.36 | 0.515 | 0.39 | 0.609 | 0.697 | 0.591 | 0.458 | 0.649 | 0.467 | 0.97 | 0.244 | 0.748 | 0.986
